Test results reported in patent EP2369000A1, “Production of peptides and proteins by accumulation in mitochondria” (3T-Science, S.L., priority 2010, dated 2011).

System: internal mitochondrial proteases
Test: MALDI-TOF-TOF sequence confirmation of MTS cleavage
Set-up: species or system Kluyveromyces lactis
Details: for Peptide detected: RFP sequence (1-9) VSKGEELIK, position 1-9; for cleavage of the MTS: enriched sample, gel piece, trypsin digestion
Method: The enriched sample was analysed on a 15% SDS-PAGE gel and stained with Coomassie blue. After de-staining the gel a piece of the SDS-PAGE gel was cut at the position where the RFP was expected. This was washed extensively in water and analysed by MALDI-TOF-TOF analysis after trypsin digestion. […]

Row | Substance | Peptide detected | cleavage of the MTS
1 | MIS-VII: synthetic mitochondrial targeting sequence (MTS), SEQ ID NO: 2, containing the core RRRA (RLRRRAARSLARSAARR) | VSKGEELIK | cleavage was correct
2 | MIS-XIII: synthetic mitochondrial targeting sequence (MTS), SEQ ID NO: 3, containing the core RRRA (RAARRRAARR) | VSKGEELIK | cleavage was correct
3 | MIS-XIV: synthetic mitochondrial targeting sequence (MTS), SEQ ID NO: 4, containing the core RRRA (RARRRARR) | VSKGEELIK | cleavage was correct
